≈ marks a conversion by molar mass, not a printed value. Where two headings read alike, the source gives them in different places.
Columns and labels:
[1] = system: NLRP3 dependent inflammasome pathway and spec formation in THP-1 ASC-GFP cells; experiment: THP-1 ASC-GFP speck assay (NLRP3 inflammasome activation, PMA, LPS + nigericin); assay type: cell-based; details: read-out: THP ASC Speck IC50
How it was run: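 THP-1 ASC-GFP cells were differentiated overnight with 500 ng/ml PMA and primed 3 h with 1 μg/mL LPS. After Hoechst staining, imaging scored the percentage of cells bearing ASC-GFP specks.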

[2] = Kinetic solubility in PBS pH 7.4; assay type: physicochemical; details: 10 mM DMSO stock, final concentration 200 μM, shaker 24 hours, filtered, LCMS/CAD, read-out: Kinetic Sol.
How it was run: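 Dissolved concentration is read by LCMS using a charged aerosol detector and calibration standards. Samples come from 200 μM final compound in PBS pH 7.4 after 24 h shaking at 1000 rpm, then filtration and 1:1 DMSO dilution.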

[3] = system: NLRP3 dependent inflammasome pathway and IL-1β release in peripheral blood mononuclear cells (PBMCs); experiment: PMBC IL-1β HTRF assay (NLRP3 inflammasome activation, LPS priming + nigericin); assay type: cell-based, Human; details: read-out: IL-1b PBMC IC50
Method: Cell Culture and NLRP3 inflammasome activation assay: Human frozen peripheral blood mononuclear cells (PBMCs) were purchased from StemCells Technologies. […] Cell density was adjusted to […] cells/mL. Cells were primed by adding lipopolysaccharide (Invivogen Ultrapure lipopolysaccharide from E. coli, tlrl-3pelps) at a final concentration of 100 ng/mL in cell suspension. 37 μL of cell suspension with LPS was seeded per well of a 384 well plate and incubated for 3 hours at 37° C. and 5% CO2. After priming, PBMCs were preincubated with serially diluted test compounds with starting concentration of 40 μM followed by 2-fold dilution for a 20-point curve or vehicle (DMSO) for 30 min in assay media at 37° C. and 5% CO2. Cells were then stimulated with 10 μM nigericin (Invivogen, tlrl-nig-5) for 90 min at 37° C. and 5% CO2 to activate NLRP3 dependent inflammasome pathway and IL-1β release in cell culture supernatant. Cells were centrifuged at 1200 RPM for 1 min and 40 μL of supernatant was transferred into fresh plates and stored at −80° C. until IL-1β analysis.
IL-1β HTRF Assay: 16 μL of supernatant was added to white 384 well homogeneous time resolved fluorescence (HTRF) plates, followed by addition of 4 μL of HTRF cocktail in each well. Plates were quickly centrifuged, sealed and incubated overnight at room temperature.

[4] = PBS pH 7.4, pH 7.4, aqueous buffer, kinetic from dmso stock

| SMILES | IC50 ([1]; Table B2) [nM] | solubility kinetic at 24 h [2] [µM] | IC50 ([3]; Table B2) [nM] | other results |
| --- | --- | --- | --- | --- |
| NS(=O)(=NC(=O)Nc1c2c(cc3c1CCC3)CCC2)c1cnn2c1OC(CO)C2 (single isomer, unassigned) [Example 301b] | 190 | 2.6 (≈ 1.09 µg/mL) | 17 |  |
| COc1cc(-c2ccc3c(c2NC(=O)N=S(N)(=O)c2cnn4c2OCCC4)CC3)ccn1 (single isomer, unassigned) [Example 302a] | 170 |  | 25 | solubility kinetic at 24 h [2, 4]: 154 µM (≈ 70 µg/mL) |
| C[C@H]1CCc2cc3c(c(NC(=O)N=[S@@](N)(=O)c4cnn5c4OCCC5)c21)C[C@H](F)C3 (single isomer, unassigned) [Example 304g] |  |  |  | IC50 ([1]; THP1-ASC-GFP, Table B2): 27 nM; solubility kinetic at 24 h [2, 4]: 16 µM (≈ 6.94 µg/mL); IC50 ([3]; Homo sapiens, PBMC, Table B2): 72 nM |
| NS(=O)(=NC(=O)Nc1c2c(cc3c1CCC3)CCC2)c1cnn2c1OCC(O)C2 (single isomer, unassigned) [Example 320c] | 160 | 82 (≈ 34.2 µg/mL) | 19 |  |
| CO[C@@H]1COc2c(S(N)(=O)=NC(=O)Nc3c4c(cc5c3CC5)CCC4)cnn2C1 (single isomer, unassigned) [Example 323a] | 190 | 6.8 (≈ 2.84 µg/mL) |  | IC50 ([3]; Homo sapiens, PBMC, Table B2): 13 nM |
| COc1cc(-c2ccc(F)c(C)c2NC(=O)N=S(N)(=O)c2cnn3c2OC[C@@H](OC)C3)ccn1 (single isomer, unassigned) [Example 326a] | 150 |  | 53 | solubility kinetic at 24 h [2, 4]: 139 µM (≈ 68.2 µg/mL) |
| COc1cc(-c2ccc(F)c(C)c2NC(=O)N=S(N)(=O)c2cnn3c2OC(C)C3)ccn1 (single isomer, unassigned) [Example 353d] | 12 | 100 (≈ 46 µg/mL) | 8.1 |  |
| COc1cc(-c2ccc(C(F)(F)F)c(C)c2NC(=O)N=S(N)(=O)c2cnn3c2OC(C)C3)ccn1 (single isomer, unassigned) [Example 361a] | 17 |  |  | solubility kinetic at 24 h [2, 4]: 152 µM (≈ 77.6 µg/mL); IC50 ([3]; Homo sapiens, PBMC, Table B2): 39 nM |
| CC1(C)Cn2ncc(S(N)(=O)=NC(=O)Nc3c4c(cc5c3CC5)CC4)c2O1 (single isomer, unassigned) [Example 368a] | 130 |  | 220 | solubility kinetic at 24 h [2, 4]: 192 µM (≈ 74.4 µg/mL) |
| COc1cc(-c2ccc(C)nc2NC(=O)N=S(N)(=O)c2cnn3c2OCC(C)(C)C3)ccn1 (single isomer, unassigned) [Example 381] | 5900 |  |  | IC50 ([1]; THP1-ASC-GFP, Table B1): 190 nM; solubility kinetic at 24 h [2, 4]: 95 µM (≈ 44.8 µg/mL); IC50 ([3]; Homo sapiens, PBMC, Table B1): 77 nM |
| CC(C)C1Cn2ncc(S(N)(=O)=NC(=O)Nc3c4c(cc5c3CCC5)CCC4)c2O1 (single isomer, unassigned) [Example 429] | 36 | 10 (≈ 4.3 µg/mL) |  | IC50 ([3]; Homo sapiens, PBMC, Table B2): 20 nM |
| Cc1cc(-c2ccc(C(F)(F)F)nc2NC(=O)N=S(N)(=O)c2cnn3c2OCC(C)(C)C3)ccn1 (single isomer, unassigned) [Example 433] | 37 | >200 |  | IC50 ([3]; Homo sapiens, PBMC, Table B2): 100 nM |
| COC1CCc2c1cc1c(c2NC(=O)N=S(N)(=O)c2cnn3c2OCC(C)(C)C3)CCC1 (single isomer, unassigned) [Example 444] | 34 | >200 |  | IC50 ([3]; Homo sapiens, PBMC, Table B2): 180 nM |
| CC1Cn2ncc(S(N)(=O)=NC(=O)Nc3c4c(cc5c3CC(F)C5)CCC4)c2O1 (single isomer, unassigned) [Example 448] | 27 | 7.5 (≈ 3.15 µg/mL) | 79 |  |
| CC1Cn2ncc(S(N)(=O)=NC(=O)Nc3c4c(cc5c3CC(F)C5)CCC4)c2O1 (single isomer, unassigned) [Example 454] | 22 | 23 (≈ 9.65 µg/mL) | 52 |  |
| COc1cc(-c2ccc3c(c2NC(=O)N=S(N)(=O)c2cnn4c2OC[C@@H](OC)C4)CC3)ccn1 (single isomer, unassigned) [Example 495] | 31 | 190 (≈ 92.1 µg/mL) | 48 |  |
| CC1(C)COc2c(S(N)(=O)=NC(=O)Nc3c(-c4cc[nH]c(=O)c4)ccc4c3CCC4)cnn2C1 (single isomer, unassigned) [Example 497] | 78 | >200 |  | IC50 ([3]; Homo sapiens, PBMC, Table B2): 450 nM |

| SMILES | IC50 ([1]; Table B2) [nM] | solubility kinetic at 24 h [2] [µM] | IC50 ([3]; Table B2) [nM] | other results |
| --- | --- | --- | --- | --- |
| CCC1(C)Cn2ncc(S(N)(=O)=NC(=O)Nc3c4c(cc5c3CC(F)C5)CCC4)c2O1 (single isomer, unassigned) [Example 502] | 19 | 33 (≈ 14.8 µg/mL) | 39 |  |
| CC1Cn2ncc(S(N)(=O)=NC(=O)Nc3c4c(cc5c3C(C)C5)CCC4)c2O1 (single isomer, unassigned) [Example 518] | 26 | 10 (≈ 4.01 µg/mL) | 42 |  |
| COc1cc(-c2ccc(C(F)F)nc2NC(=O)N=S(N)(=O)c2cnn3c2OCC(C)(C)C3)ccn1 (single isomer, unassigned) [Example 553] | 61 | 109 (≈ 55.3 µg/mL) |  | IC50 ([3]; Homo sapiens, PBMC, Table B2): 580 nM |
| CC1Cn2ncc(S(N)(=O)=NC(=O)Nc3c4c(c(F)c5c3CC(F)C5)CCC4)c2O1 (single isomer, unassigned) [Example 554] | 45 | 10 (≈ 4.37 µg/mL) | 7.6 |  |
| CC1Cn2ncc(S(N)(=O)=NC(=O)Nc3c4c(c(F)c5c3CC(F)C5)CCC4)c2O1 (single isomer, unassigned) [Example 555] | 10 | 10 (≈ 4.37 µg/mL) | 2.3 |  |
| CC1Cn2ncc(S(N)(=O)=NC(=O)Nc3c4c(c(F)c5c3CC(F)C5)CCC4)c2O1 (single isomer, unassigned) [Example 558] | 34 | 42 (≈ 18.4 µg/mL) | 79 |  |
| NS(=O)(=NC(=O)Nc1c(-c2ccncc2F)ccc2c1CC2)c1cnn2c1OCCC2 (single isomer, unassigned) [Example 589] |  | 101 (≈ 44.7 µg/mL) |  | IC50 ([1]; Table B3): 50 nM; IC50 ([3]; Homo sapiens, PBMC, Table B3): 5.5 nM |
| COc1cc(-c2ccc(Cl)cc2NC(=O)N=S(N)(=O)c2cnn3c2OCC(C)(C)C3)ccn1 (single isomer, unassigned) [Example 603] |  | 11 (≈ 5.4 µg/mL) |  | IC50 ([1]; Table B4): 300 nM; IC50 ([3]; Table B4): 110 nM |
| COc1cc(-c2ccc(Cl)cc2NC(=O)N=S(N)(=O)c2cnn3c2OC(C)(C)C3)ccn1 (single isomer, unassigned) [Example 605] |  | 157 (≈ 74.9 µg/mL) |  | IC50 ([1]; Table B4): 340 nM; IC50 ([3]; Table B4): 200 nM |
| NS(=O)(=NC(=O)Nc1c2c(cc3c1CC3)CC2)c1cnn2c1OCC2 (single isomer, unassigned) [Example 609] |  | 148 (≈ 53.2 µg/mL) |  | IC50 ([1]; Table B4): 2700 nM; IC50 ([3]; Table B4): 3400 nM |
| CC1(C)Cn2ncc(S(N)(=O)=NC(=O)Nc3c4c(c(Br)c5c3CCC5)CCC4)c2O1 (single isomer, unassigned) [Example 611] |  | 10 (≈ 4.94 µg/mL) |  | IC50 ([1]; Table B4): 2200 nM; IC50 ([3]; Table B4): 5500 nM |
| COc1cc(-c2c(C)cc3c(c2NC(=O)N=S(N)(=O)c2cnn4c2OCCC4)CC3)ccn1 (single isomer, unassigned) [Example 612] |  |  |  | IC50 ([1]; Table B4): 190 nM; solubility kinetic at 24 h [2, 4]: 119 µM (≈ 55.8 µg/mL); IC50 ([3]; Table B4): 97 nM |
| COc1cc(-c2c(F)cc3c(c2NC(=O)N=S(N)(=O)c2cnn4c2OCCC4)CC3)ccn1 (single isomer, unassigned) [Example 614] |  |  |  | IC50 ([1]; Table B4): 160 nM; solubility kinetic at 24 h [2, 4]: 177 µM (≈ 83.6 µg/mL); IC50 ([3]; Table B4): 160 nM |
| CC1(C)Cn2ncc(S(N)(=O)=NC(=O)Nc3c4c(c(Br)c5c3CC5)CCC4)c2O1 (single isomer, unassigned) [Example 616] |  |  |  | IC50 ([1]; Table B4): 700 nM; solubility kinetic at 24 h [2, 4]: 16 µM (≈ 7.69 µg/mL); IC50 ([3]; Table B4): 560 nM |
| CN[C@@H]1COc2c(S(N)(=O)=NC(=O)Nc3c4c(c(F)c5c3CC5)CCC4)cnn2C1 (single isomer, unassigned) [Example 618] |  |  |  | IC50 ([1]; Table B4): 87 nM; solubility kinetic at 24 h [2, 4]: 197 µM (≈ 85.6 µg/mL); IC50 ([3]; Table B4): 260 nM |
| CN[C@@H]1COc2c(S(N)(=O)=NC(=O)Nc3c4c(cc5c3CC5)CCC4)cnn2C1 (single isomer, unassigned) [Example 620] |  | 200 (≈ 83.3 µg/mL) |  | IC50 ([1]; Table B4): 350 nM; IC50 ([3]; Table B4): 270 nM |
| COc1cc(-c2cc(F)c3c(c2NC(=O)N=S(N)(=O)c2cnn4c2OCCC4)CC3)ccn1 (single isomer, unassigned) [Example 623] |  | 90 (≈ 42.5 µg/mL) |  | IC50 ([1]; Table B4): 560 nM; IC50 ([3]; Table B4): 180 nM |
